Measured values published in patent US9382254B2, “Compounds and pharmaceutical compositions thereof for the treatment of cystic fibrosis” (Galapagos NV, priority 2013, dated 2016).

Assays:
Assay type in all cases: cell-based
CFTR ΔF508 mutant [1] = target: T1, CFTR ΔF508 mutant (Homo sapiens, UniProt P13569, DEL508-508); experiment: YFP-halide influx assay for the CFTR-ΔF508 mutation, gluconate buffer; details: CFBE41o- cells, forskolin 10.67 μM
T1 construct: expressed in transfected cells; host or cells: CFBE41o- (adenoviral transduction)
Source text: The YFP halide influx assay measures the functionality of the cystic fibrosis Transmembrane Conductance regulator (CFTR) channels in the cystic fibrosis bronchial epithelium cell line CFBE41o-. The assay is used to evaluate the capacity of compounds to increase the open probability of existing CFTR channels in the membrane. It makes use of the observation that the yellow fluorescent protein (YFP) variant YFP H148Q, I152L has its fluorescence substantially quenched by halide ions like Cl^− and I^−. (Galietta, Haggie, & Verkman, 2001) (Nagai, et al., 2002)
For this purpose, CFBE41o-cells are seeded in 96 well plates (6000 CFBE cells/well). One day after seeding, the CFBE cells are transduced with adenoviral vectors that direct the expression of the CFTR ΔF508 mutant and of the YFP reporter. Cells are incubated at 27° C., 5% CO2 for 24 hours so as to allow for the proper folding and migration to the membrane of the CFTR channel or treated with a CFTR modulator during 24 hours at 37° C.
The I^−-induced quenching of fluorescence is recorded immediately after injection of I^− for 7 seconds. The capacity of a compound to increase the channel opening is directly correlated with the decrease in fluorescence, and is expressed as (1-(fluorescence after 7 seconds (F)/fluorescence before injection (F0))) and an EC50 can be derived from a (1-F/F0) vs compound concentration plot.

CFTR ΔF508 mutant [2] = target: T1, CFTR ΔF508 mutant; experiment: YFP-halide influx assay for the CFTR-ΔF508 mutation (384 well, FDSS/μCell); details: CFBE41o- cells, CFTR-ΔF508, 1×D-PBS, fluorescence after 36 seconds
In short: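 Potentiator read-out as 1−F/F0, F taken 36 s after iodide addition, EC50 fitted against compound concentration. Cells: CFBE41o- expressing ΔF508 CFTR plus halide-sensitive YFP via adenovirus, rescued by 27 °C for 24 h or 24 h modulator at 37 °C.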

CFTR G551D mutant = target: T2, CFTR G551D mutant (Homo sapiens, UniProt P13569, G551D); experiment: YFP-halide influx assay for the CFTR-G551D mutation; details: HEK293 cells, forskolin 10.67 μM
T2 construct: expressed in transfected cells; host or cells: HEK293 (reverse transfection with plasmid)
In short: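 Channel opening potentiation measured as 1−F/F0, where F is YFP fluorescence 7 s after iodide injection and F0 before; EC50 taken from concentration plot. Cells: HEK293 transiently expressing CFTR G551D plus halide-sensitive YFP (H148Q, I152L, F47L), 24 h at 37 °C, 5% CO2.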

T1 sequence (P13569 with tags, fused parts or gaps DEL508-508): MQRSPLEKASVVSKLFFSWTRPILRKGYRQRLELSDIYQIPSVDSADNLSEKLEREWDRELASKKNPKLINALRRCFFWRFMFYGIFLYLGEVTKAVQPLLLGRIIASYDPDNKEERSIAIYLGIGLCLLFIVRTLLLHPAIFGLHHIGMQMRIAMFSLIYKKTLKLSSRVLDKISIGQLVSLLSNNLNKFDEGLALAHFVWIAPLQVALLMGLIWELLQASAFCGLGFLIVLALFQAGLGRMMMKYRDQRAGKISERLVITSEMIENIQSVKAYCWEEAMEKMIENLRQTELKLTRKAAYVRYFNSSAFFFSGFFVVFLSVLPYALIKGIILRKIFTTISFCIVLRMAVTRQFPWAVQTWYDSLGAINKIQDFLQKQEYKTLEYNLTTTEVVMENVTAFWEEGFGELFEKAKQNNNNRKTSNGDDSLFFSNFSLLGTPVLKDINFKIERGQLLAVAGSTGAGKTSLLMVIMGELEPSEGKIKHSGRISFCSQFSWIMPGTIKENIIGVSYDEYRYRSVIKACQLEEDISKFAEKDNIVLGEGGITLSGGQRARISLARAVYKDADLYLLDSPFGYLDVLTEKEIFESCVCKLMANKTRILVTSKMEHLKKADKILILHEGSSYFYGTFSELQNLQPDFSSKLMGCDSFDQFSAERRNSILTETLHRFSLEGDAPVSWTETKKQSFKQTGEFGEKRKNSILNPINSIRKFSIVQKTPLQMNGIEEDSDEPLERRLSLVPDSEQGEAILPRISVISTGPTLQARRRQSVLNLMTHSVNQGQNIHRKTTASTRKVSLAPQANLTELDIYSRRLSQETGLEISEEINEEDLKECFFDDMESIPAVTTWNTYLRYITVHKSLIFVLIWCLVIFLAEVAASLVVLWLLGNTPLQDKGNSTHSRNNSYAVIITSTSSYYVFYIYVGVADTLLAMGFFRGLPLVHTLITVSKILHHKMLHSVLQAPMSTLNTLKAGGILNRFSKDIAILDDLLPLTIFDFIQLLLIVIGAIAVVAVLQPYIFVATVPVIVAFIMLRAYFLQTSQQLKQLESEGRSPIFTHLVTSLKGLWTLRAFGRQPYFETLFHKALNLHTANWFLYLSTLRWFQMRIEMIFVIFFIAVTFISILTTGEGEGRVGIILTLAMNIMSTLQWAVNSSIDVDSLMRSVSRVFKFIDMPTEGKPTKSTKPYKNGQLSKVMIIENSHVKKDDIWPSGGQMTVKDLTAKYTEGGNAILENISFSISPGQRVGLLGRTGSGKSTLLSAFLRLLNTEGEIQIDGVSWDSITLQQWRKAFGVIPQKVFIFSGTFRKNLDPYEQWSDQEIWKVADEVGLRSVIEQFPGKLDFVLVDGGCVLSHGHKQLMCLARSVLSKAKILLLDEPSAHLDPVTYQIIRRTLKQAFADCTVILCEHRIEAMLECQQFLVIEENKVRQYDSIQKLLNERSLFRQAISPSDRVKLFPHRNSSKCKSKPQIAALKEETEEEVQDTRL
T2 sequence (P13569 whole entry G551D): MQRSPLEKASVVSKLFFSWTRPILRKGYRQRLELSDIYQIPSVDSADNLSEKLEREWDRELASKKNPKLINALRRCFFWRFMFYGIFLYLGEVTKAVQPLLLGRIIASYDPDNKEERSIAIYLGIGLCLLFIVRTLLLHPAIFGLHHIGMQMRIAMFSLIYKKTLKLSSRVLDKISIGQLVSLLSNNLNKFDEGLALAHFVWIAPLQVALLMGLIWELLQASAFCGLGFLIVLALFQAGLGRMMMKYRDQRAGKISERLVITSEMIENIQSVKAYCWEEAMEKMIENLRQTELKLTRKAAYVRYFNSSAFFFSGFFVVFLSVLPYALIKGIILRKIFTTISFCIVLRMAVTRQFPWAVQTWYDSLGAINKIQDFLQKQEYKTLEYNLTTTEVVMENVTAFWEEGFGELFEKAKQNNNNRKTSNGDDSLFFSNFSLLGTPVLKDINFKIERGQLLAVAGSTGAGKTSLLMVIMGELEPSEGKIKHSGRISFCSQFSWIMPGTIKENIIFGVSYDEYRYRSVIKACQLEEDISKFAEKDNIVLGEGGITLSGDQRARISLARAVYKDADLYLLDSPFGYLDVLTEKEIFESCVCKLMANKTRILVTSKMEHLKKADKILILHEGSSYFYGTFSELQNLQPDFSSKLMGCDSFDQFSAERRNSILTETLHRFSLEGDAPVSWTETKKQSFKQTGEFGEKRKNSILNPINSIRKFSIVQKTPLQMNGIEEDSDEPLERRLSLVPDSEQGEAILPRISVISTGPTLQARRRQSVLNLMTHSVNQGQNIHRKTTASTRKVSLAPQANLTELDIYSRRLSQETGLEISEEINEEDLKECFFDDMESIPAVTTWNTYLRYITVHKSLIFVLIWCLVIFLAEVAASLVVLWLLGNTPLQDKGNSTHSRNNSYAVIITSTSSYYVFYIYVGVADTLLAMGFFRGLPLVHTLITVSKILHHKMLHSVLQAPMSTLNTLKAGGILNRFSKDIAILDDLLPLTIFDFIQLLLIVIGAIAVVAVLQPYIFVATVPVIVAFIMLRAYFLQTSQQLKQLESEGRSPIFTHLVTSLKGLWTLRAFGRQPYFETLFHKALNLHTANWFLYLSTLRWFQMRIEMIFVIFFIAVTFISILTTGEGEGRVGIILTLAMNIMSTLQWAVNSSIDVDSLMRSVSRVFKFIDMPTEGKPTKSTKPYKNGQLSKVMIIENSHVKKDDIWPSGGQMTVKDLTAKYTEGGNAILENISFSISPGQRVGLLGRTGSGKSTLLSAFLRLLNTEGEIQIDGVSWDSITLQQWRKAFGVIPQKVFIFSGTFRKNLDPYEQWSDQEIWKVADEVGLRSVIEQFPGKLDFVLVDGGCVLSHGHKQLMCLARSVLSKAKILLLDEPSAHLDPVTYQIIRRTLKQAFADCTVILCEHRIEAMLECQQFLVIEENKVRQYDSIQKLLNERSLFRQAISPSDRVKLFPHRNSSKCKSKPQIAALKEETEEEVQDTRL

| Structure (SMILES) | EC50 (CFTR ΔF508 mutant [1]) [nM] | EC50 (CFTR ΔF508 mutant [2]) [nM] | EC50 (CFTR G551D mutant) [nM] | EC50 (CFTR G551D mutant; class symbol) [nM] |
| --- | --- | --- | --- | --- |
| Cc1ccc(C(=O)Nc2sc(S(=O)(=O)N3CCCCC3)cc2C(N)=O)s1 [Compound 1, N-(3-carbamoyl-5-(piperidin-1-ylsulfonyl)thiophen-2-yl)-5-methylthiophene-2-carboxamidc] | 135 | – | – | – |
| NC(=O)c1cc(S(=O)(=O)N2CCCCC2)sc1NC(=O)c1cc2c(F)cccc2s1 [Compound 2, N-(3-carbamoyl-5-(piperidin-1-ylsulfonyl)thiophen-2-yl)-4-fluorobenzo[b] thiophene-2-carboxamide] | 483 | – | – | – |
| Cc1ccc(C(=O)Nc2sc(S(=O)(=O)N3CCN(C)CC3)cc2C(N)=O)s1 [Compound 5, N-(3-carbamoyl-5-(4-methylpiperazin-1-ylsulfonyl)thiophen-2-yl)-5-methylthiophene-2-carboxamide] | 944 | – | – | – |
| Cc1ccc(C(=O)Nc2sc(S(=O)(=O)N(C)Cc3ccccc3)cc2C(N)=O)s1 [Compound 6, N-(5-(N-benzyl-N-methylsulfamoyl)-3-carbamoylthiophen-2-yl)-5-methylthiophene-2-carboxamide] | 321 | – | – | – |
| Cc1ccc(C(=O)Nc2sc(S(=O)(=O)N(C)c3ccccc3)cc2C(N)=O)s1 [Compound 7, N-(3-carbamoyl-5-(N-methyl-N-phenylsulfamoyl)thiophen-2-yl)-5-methylthiophen-2-carboxamide] | 1080 | – | – | – |
| Cc1ccc(C(=O)Nc2sc(S(=O)(=O)N3Cc4ccccc4C3)cc2C(N)=O)s1 [Compound 8, N-(3-carbamoyl-5-(isoindolin-2-ylsulfonyl)thiophen-2-yl)-5-methylthiphen-2-carboxamide] | 646 | – | – | – |
| NC(=O)c1cc(S(=O)(=O)N2CCCCC2)sc1NC(=O)c1cc2c(s1)CCCC2 [Compound 9, N-(3-carbamoyl-5-(piperidin-1-ylsulfonyl)thiophen-2-yl)-4,5,6,7-tetrahydrobenzo[b] thiophene-2-carboxamide] | 603 | – | – | – |
| NC(=O)c1cc(S(=O)(=O)N2CCCCC2)sc1NC(=O)c1cc2ccccc2s1 [Compound 10, N-(3-carbamoyl-5-(piperidin-1-ylsulfonyl)thiophen-2-yl)benzo[b] thiophene-2-carboxamide] | 628 | – | – | – |
| N#Cc1cccc(C(=O)Nc2sc(S(=O)(=O)N3CCCCC3)cc2C(N)=O)c1 [Compound 11, 2-(3-cyanobenzamido)-5-(piperidin-1-ylsulfonyl) thiophene-3-carboxamide] | 568 | – | – | – |
| NC(=O)c1cc(S(=O)(=O)N2CCCCC2)sc1NC(=O)c1ccc2ncsc2c1 [Compound 12, N-(3-carbamoyl-5-(piperidin-1-ylsulfonyl)thiophen-2-yl)benzo[d] thiazole-6-carboxamide] | 887 | – | – | – |
| NC(=O)c1cc(S(=O)(=O)N2CCCCC2)sc1NC(=O)C1CCCC1 [Compound 13, 2-(cyclopentanecarboxamido)-5-(piperidin-1-ylsulfonyl)thiophene-3-carboxamide] | 401 | – | – | – |
| NC(=O)c1cc(S(=O)(=O)N2CCCCC2)sc1NC(=O)c1cccc(F)c1 [Compound 14, 2-(3-fluorobenzamido)-5-(piperidin-1-ylsulfonyl)thiophene-3-carboxamide] | 357 | – | – | – |
| Cc1cc(C#N)cc(S(=O)(=O)c2cc(C(N)=O)c(NC(=O)C(C)(C)O)s2)c1 [Compound 399, 5-(3-cyano-5-methyl-phenyl)sulfonyl-2-[(2-hydroxy-2-methyl-propanoyl)amino] thiophene-3-carboxamide] | – | 56.6 | 1900 | – |
| COc1ccc(S(=O)(=O)c2cc(C(N)=O)c(NC(=O)C(C)(C)O)s2)cc1 [Compound 400, 2-[(2-hydroxy-2-methyl-propanoyl)amino]-5-(4-methoxyphenyl)sulfonyl-thiophene-3-carboxamide] | – | 56.7 | 1950 | – |
| CC(O)C(=O)Nc1sc(S(=O)(=O)c2ccc(OC(F)F)cc2)cc1C(N)=O (stereo not shown) [Compound 403, 5-[4-(difluoromethoxy)phenyl] sulfonyl-2-(2-hydroxypropanoylamino) thiophene-3-carboxamide] | – | 27.5 | 1610 | – |
| CC(C)(O)C(=O)Nc1sc(S(=O)(=O)c2ccc(C#N)cc2F)cc1C(N)=O [Compound 406, 5-(4-cyano-2-fluoro-phenyl)sulfonyl-2-[(2-hydroxy-2-methyl-propanoyl)amino] thiophene-3-carboxamide] | – | 56.1 | 1310 | – |
| CC(C)(O)C(=O)Nc1sc(S(=O)(=O)c2cccc(C#N)c2)cc1C(N)=O [Compound 409, 5-(3-cyanophenyl)sulfonyl-2-[(2-hydroxy-2-methyl-propanoyl)amino] thiophene-3-carboxamide] | – | 47.7 | 2370 | – |
| COc1c(Cl)ncnc1S(=O)(=O)c1cc(C(N)=O)c(NC(=O)C(C)(C)O)s1 [Compound 414, 5-(6-chloro-5-methoxy-pyrimidin-4-yl)sulfonyl-2-[(2-hydroxy-2-methyl-propanoyl)amino] thiophene-3-carboxamide] | – | 111 | – | > 1000 |
| COc1cnc(C(F)(F)F)nc1S(=O)(=O)c1cc(C(N)=O)c(NC(=O)C(C)(C)O)s1 [Compound 415, 2-[(2-hydroxy-2-methyl-propanoyl)amino]-5-[5-methoxy-2-(trifluoromethyl)pyrimidin-4-yl]sulfonyl-thiophene-3-carboxamide] | – | 305 | – | > 1000 |
| CC(C)(O)C(=O)Nc1sc(S(=O)(=O)c2nccnc2C(F)(F)F)cc1C(N)=O [Compound 417, 2-[(2-hydroxy-2-methyl-propanoyl)amino]-5-[3-(trifluoromethyl)pyrazin-2-yl]sulfonyl-thiophene-3-carboxamide] | – | 147 | 6660 | – |
| CC(C)(O)C(=O)Nc1sc(S(=O)(=O)c2cc(CC#N)cc(OC(F)(F)F)c2)cc1C(N)=O [Compound 428, 5-[3-(cyanomethyl)-5-(trifluoromethoxy)phenyl] sulfonyl-2-[(2-hydroxy-2-methyl-propanoyl)amino] thiophene-3-carboxamide] | – | 76.1 | 3330 | – |
| CC(C)(O)C(=O)Nc1sc(S(=O)(=O)c2ccc(C(F)(F)F)nn2)cc1C(N)=O [Compound 431, 2-[(2-hydroxy-2-methyl-propanoyl)amino]-5-[6-(trifluoromethyl)pyridazin-3-yl]sulfonyl-thiophene-3-carboxamide] | – | 150 | 2220 | – |
| CN1COCc2cc(S(=O)(=O)c3cc(C(N)=O)c(NC(=O)C(C)(C)O)s3)ccc21 [Compound 434, 2-[(2-hdyroxy-2-methyl-propanoyl)amino]-5-[(1-methyl-2,4-dihydro-3,1-benzoxazin-6-yl)sulfonyl] thiophene-3-carboxamide] | – | 227 | 1930 | – |
| CC(C)(O)C(=O)Nc1sc(S(=O)(=O)c2cccnc2C(F)(F)F)cc1C(N)=O [Compound 436, 2-[(2-hydroxy-2-methyl-propanoyl)amino]-5-[[2-(trifluoromethyl)-3-pyridyl]sulfonyl] thiophene-3-carboxamide] | – | 32.1 | 1730 | – |
| CC(C)(O)C(=O)Nc1sc(S(=O)(=O)c2nc(CO)ccc2C(F)(F)F)cc1C(N)=O [Compound 438, 2-[(2-hydroxy-2-methyl-propanoyl)amino]-5-[[6-(hydroxymethyl)-3-(trifluoromethyl)-2-pyridyl]sulfonyl] thiophene-3-carboxamide] | – | 216 | – | > 1000 |
| Cc1c(S(=O)(=O)c2ccc(C(F)(F)F)cc2F)sc(NC(=O)C(C)(C)O)c1C(N)=O [Compound 439, 5-[2-fluoro-4-(trifluoromethyl)phenyl]sulfonyl-2-[(2-hydroxy-2-methyl-propanoyl)amino]-4-methyl-thiophene-3-carboxamide] | – | 7.16 | 6660 | – |
| CC(C)(O)C(=O)Nc1sc(S(=O)(=O)c2cc(Cl)cnc2C(F)(F)F)cc1C(N)=O [Compound 440, 5-[[5-chloro-2-(trifluoromethyl)-3-pyridyl]sulfonyl]-2-[(2-hydroxy-2-methyl-propanoyl)amino] thiophene-3-carboxamide] | – | 13 | 2190 | – |
| NC(=O)c1cc(S(=O)(=O)c2ccc(OC(F)(F)F)cc2)sc1NC(=O)C1CCCO1 (stereo not shown) [Compound 442, N-[3-carbamoyl-5-[4-(trifluoromethoxy)phenyl]sulfonyl-2-thienyl] tetrahydrofuran-2-carboxamide] | – | 90.9 | 3330 | – |
| NC(=O)c1cc(S(=O)(=O)c2ccc(OC(F)(F)F)cc2)sc1NC(=O)C1CCOC1 (stereo not shown) [Compound 443, N-[3-carbamoyl-5-[4-(trifluoromethoxy)phenyl]sulfonyl-2-thienyl] tetrahydrofuran-3-carboxamide] | – | 107 | 3330 | – |
